# Laboratory results taken from patent US11667651B2, “Aminopyridine derivatives as phosphatidylinositol phosphate kinase inhibitors” (HiberCell, Inc., priority 2017, dated 2023).
# Key:
# [1] = biological target: T1, PIP4K2B (Homo sapiens, UniProt P78356); assay: Trans-FI P kinase assay PIP4K2B (Table 4); type: biochemical; conditions: compounds listed under IC50 bins; read-out: Trans-FI P kinase assays: PIP4K2B IC50
# T1 construct: made in house; host or cells: E. coli
# T1 sequence (P78356 1-416): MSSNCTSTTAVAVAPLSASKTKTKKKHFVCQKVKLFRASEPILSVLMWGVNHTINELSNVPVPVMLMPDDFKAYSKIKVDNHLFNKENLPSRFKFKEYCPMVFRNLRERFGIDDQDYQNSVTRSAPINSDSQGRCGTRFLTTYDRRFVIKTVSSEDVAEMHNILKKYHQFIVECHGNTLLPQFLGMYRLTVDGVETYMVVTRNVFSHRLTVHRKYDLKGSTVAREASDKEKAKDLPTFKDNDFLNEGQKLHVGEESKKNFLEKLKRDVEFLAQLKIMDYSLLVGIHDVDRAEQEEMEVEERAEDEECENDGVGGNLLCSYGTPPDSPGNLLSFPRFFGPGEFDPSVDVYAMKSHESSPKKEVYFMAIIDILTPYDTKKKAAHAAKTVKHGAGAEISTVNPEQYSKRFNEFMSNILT
# Procedure, shortened: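 Transcreener FI detection (Ex 584/Em 623) of GDP, converted via calibration curve, gives IC50 from residual activity versus log concentration (highest 4.8 μM). Reaction: 80 μM PI5P plus DOPE carrier, 100 μM GTP, 5 nM GST-tagged enzyme, pH 7.3 HEPES with MgCl2 and 5% DMSO, 2 h after 1 h enzyme-compound preincubation at 27° C.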
# [2] = biological target: T2, PIP4K2A (Homo sapiens, UniProt P48426); assay: ADP-glo kinase assay PIP4K 2A (Table 3); type: biochemical; parameters: made in house; host or cells: E. coli; conditions: compounds listed under IC50 bins
# T2 sequence (P48426 1-406): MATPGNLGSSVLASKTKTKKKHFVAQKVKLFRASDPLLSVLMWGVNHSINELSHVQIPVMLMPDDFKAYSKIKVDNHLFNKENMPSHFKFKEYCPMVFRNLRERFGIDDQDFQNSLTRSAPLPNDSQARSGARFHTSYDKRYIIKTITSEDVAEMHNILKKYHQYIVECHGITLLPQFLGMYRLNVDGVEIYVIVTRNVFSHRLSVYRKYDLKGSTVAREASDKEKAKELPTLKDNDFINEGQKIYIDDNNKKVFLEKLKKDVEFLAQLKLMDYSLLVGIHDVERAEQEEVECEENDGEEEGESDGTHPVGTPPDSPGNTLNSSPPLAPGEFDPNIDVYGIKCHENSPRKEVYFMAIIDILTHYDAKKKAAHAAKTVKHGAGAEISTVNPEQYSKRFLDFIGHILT
# Method: Dilution series of the compounds were prepared in DMSO at 100 times the final assay concentration (n1=n0/3 in 10 points). The compounds were further diluted to three times the assay concentration in assay buffer (20 mM MOPS pH 7.2, 25 mM magnesium chloride, 0.005% Tween 20). 6 μL of the diluted compounds were added to a 384 well assay plate followed by 9 μL of a mix consisting of 4 nM PIP4K2A (full length protein, SignalChem) and 100 μM PI(5)P diC8 (Tebu-Bio). Enzyme and compounds were pre-incubated at room temperature for 15 minutes.
# Then 3 μL of a solution containing 60 μM ATP (Promega) in assay buffer was added to the wells containing compound and enzyme and mixing was performed by pipetting several times. The reaction was incubated at room temperature for 1 h. Then 18 μL of ADP-Glo™ Reagent (Promega) was added to stop the kinase reaction and deplete the unconsumed ATP, mixing was performed by pipetting several times. The plate was incubated at room temperature for 40 minutes before addition of 36 μL of Kinase Detection Reagent (Promega) to convert ADP to ATP and introduce luciferase and luciferin to detect ATP. The reaction was incubated at room temperature for 40 minutes before the luminescence was measured in a in a Victor 3V 1420 multilabel counter (Perkin Elmer).
# Percent inhibition of the compounds as compared to dimethyl sulfoxide treated control samples was calculated. Compound concentration versus percent inhibition were fitted to generate IC50 values. […]
IC50 [1] [µM],IC50 [2] [µM],Structure (SMILES)
0.01 to 0.1,0.1 to 1,"O=C(Nc1cncc(Nc2ccc(-c3ccc(N4CCCC4=O)cc3)cn2)c1)N1CCOCC1 [Example 251, N-(5-((5-(4-(2-oxopyrrolidin-1-yl)phenyl)pyridin-2-yl)amino)pyridin-3-yl)morpholine-4-carboxamide]"
0.01 to 0.1,0.01 to 0.1,"Cc1cc(N2CCCC2=O)ccc1-c1ccc(Nc2cnc3c(c2)N2C(=O)C4(CC4)C[C@H]2CO3)nc1 [Example 208, (S)-2′-((5-(2-methyl-4-(2-oxopyrrolidin-1-yl)phenyl)pyridin-2-yl)amino)-6a′,7′-dihydro-6′H,9′H-spiro[cyclopropane-1,8′-pyrido[2,3-b]pyrrolo[1,2-d][1,4]oxazin]-9′-one]"
0.001 to 0.01,0.001 to 0.01,"Cc1nc(Nc2cnc3c(c2)N2C(=O)C4(CC4)C[C@H]2CO3)ncc1-c1ccc(N2CCCC2=O)cc1 [Example 201, (S)-2′-((4-methyl-5-(4-(2-oxopyrrolidin-1-yl)phenyl)pyrimidin-2-yl)amino)-6a′,7′-dihydro-6′H,9′H-spiro[cyclopropane-1,8′-pyrido[2,3-b]pyrrolo[1,2-d][1,4]oxazin]-9′-one]"
0.01 to 0.1,0.1 to 1,"O=C(Nc1cncc(Nc2ccc(-c3ccc(N4CCCC4=O)cc3)cn2)c1)N1CCNC(C2CC2)C1 (centres unmarked) [Example 257, 3-cyclopropyl-N-(5-((5-(4-(2-oxopyrrolidin-1-yl)phenyl)pyridin-2-yl)amino)pyridin-3-yl)piperazine-1-carboxamide]"
0.001 to 0.01,≤ 0.001,"COc1nc(Nc2cnc3c(c2)N2C(=O)C4(CC4)C[C@H]2CO3)ncc1-c1ccc(N2CCCC2=O)cc1 [Example 200, (S)-2′-((4-methoxy-5-(4-(2-oxopyrrolidin-1-yl)phenyl)pyrimidin-2-yl)amino)-6a′,7′-dihydro-6′H,9′H-spiro[cyclopropane-1,8′-pyrido[2,3-b]pyrrolo[1,2-d][1,4]oxazin]-9′-one]"
0.001 to 0.01,0.01 to 0.1,"Cc1nc(Nc2cnc3c(c2)N2C(=O)CC[C@H]2CO3)ncc1-c1ccc(N2CCCC2=O)cc1 [Example 196, (S)-2-((4-methyl-5-(4-(2-oxopyrrolidin-1-yl)phenyl)pyrimidin-2-yl)amino)-6,6a,7,8-tetrahydro-9H-pyrido[2,3-b]pyrrolo[1,2-d][1,4]oxazin-9-one]"
0.01 to 0.1,0.01 to 0.1,"C[C@@]1(O)C[C@H]2COc3ncc(Nc4ccc(-c5ccc(N6CCCC6=O)cc5)cn4)cc3N2C1=O [Example 271, (6aS,8R)-8-hydroxy-8-methyl-2-((5-(4-(2-oxopyrrolidin-1-yl)phenyl)pyridin-2-yl)amino)-6,6a,7,8-tetrahydro-9H-pyrido[2,3-b]pyrrolo[1,2-d][1,4]oxazin-9-one]"
0.001 to 0.01,0.001 to 0.01,"Cc1cc(N2CCCC2=O)ccc1-c1cnc(Nc2cnc3c(c2)N2C(=O)CC[C@H]2CO3)nc1 [Example 198, (S)-2-((5-(2-methyl-4-(2-oxopyrrolidin-1-yl)phenyl)pyrimidin-2-yl)amino)-6,6a,7,8-tetrahydro-9H-pyrido[2,3-b]pyrrolo[1,2-d][1,4]oxazin-9-one]"
0.001 to 0.01,0.001 to 0.01,"Nc1nc(Nc2cnc3c(c2)N2C(=O)CC[C@H]2CO3)ncc1-c1ccc(N2CCCC2=O)cc1 [Example 199, (S)-2-((4-amino-5-(4-(2-oxopyrrolidin-1-yl)phenyl)pyrimidin-2-yl)amino)-6,6a,7,8-tetrahydro-9H-pyrido[2,3-b]pyrrolo[1,2-d][1,4]oxazin-9-one]"
0.01 to 0.1,0.001 to 0.01,"CC1C[C@H]2COc3ncc(Nc4ccc(-c5ccc(N6CCCC6=O)c(F)c5)cn4)cc3N2C1=O (stereo partly drawn) [Example 261, (6aS)-2-((5-(3-fluoro-4-(2-oxopyrrolidin-1-yl)phenyl)pyridin-2-yl)amino)-8-methyl-6,6a,7,8-tetrahydro-9H-pyrido[2,3-b]pyrrolo[1,2-d][1,4]oxazin-9-one]"
0.001 to 0.01,0.001 to 0.01,"O=C1CCCN1c1ccc(-c2cnc(Nc3cnc4c(c3)N3C(=O)C5(CC5)C[C@H]3CO4)nc2)cc1 [Example 205, (S)-2′-((5-(4-(2-oxopyrrolidin-1-yl)phenyl)pyrimidin-2-yl)amino)-6a′,7′-dihydro-6′H,9′H-spiro[cyclopropane-1,8′-pyrido[2,3-b]pyrrolo[1,2-d][1,4]oxazin]-9′-one]"
0.01 to 0.1,0.01 to 0.1,"O=C1CCCN1c1ccc(-c2ccc(Nc3cnc4c(c3)N3C(=O)CC[C@@H]3CO4)nc2)cc1F [Example 173, (R)-2-((5-(3-fluoro-4-(2-oxopyrrolidin-1-yl)phenyl)pyridin-2-yl)amino)-6,6a,7,8-tetrahydro-9H-pyrido[2,3-b]pyrrolo[1,2-d][1,4]oxazin-9-one]"
0.01 to 0.1,0.1 to 1,"CC1CN(C(=O)Nc2cncc(Nc3ccc(-c4ccc(N5CCCC5=O)cc4)cn3)c2)CCO1 (centres unmarked) [Example 250, 2-methyl-N-(5-((5-(4-(2-oxopyrrolidin-1-yl)phenyl)pyridin-2-yl)amino)pyridin-3-yl)morpholine-4-carboxamide]"
0.01 to 0.1,0.01 to 0.1,"CN(C)C/C=C/C(=O)Nc1ccc(C(=O)Nc2cncc(Nc3ccc(-c4ccc(N5CCCC5=O)cc4)cn3)c2)cc1 [Example 167, (E)-4-(4-(dimethylamino)but-2-enamido)-N-(5-((5-(4-(2-oxopyrrolidin-1-yl)phenyl)pyridin-2-yl)amino)pyridin-3-yl)benzamide]"
0.01 to 0.1,0.001 to 0.01,"CC(C)(N)c1cc(Nc2cnc3c(c2)N2C(=O)CC[C@H]2CO3)ncc1-c1ccc(N2CCCC2=O)cc1F [Example 266, (S)-2-((4-(2-aminopropan-2-yl)-5-(2-fluoro-4-(2-oxopyrrolidin-1-yl)phenyl)pyridin-2-yl)amino)-6,6a,7,8-tetrahydro-9H-pyrido[2,3-b]pyrrolo[1,2-d][1,4]oxazin-9-one]"
0.01 to 0.1,0.1 to 1,"O=C([C@H]1CCOC1)N1CCN(c2cncc(Nc3ccc(-c4ccc(N5CCCC5=O)cc4)cn3)c2)CC1 [Example 245, (S)-1-(4-(6-((5-(4-(tetrahydrofuran-3-carbonyl)piperazin-1-yl)pyridin-3-yl)amino)pyridin-3-yl)phenyl)pyrrolidin-2-one]"
0.01 to 0.1,0.1 to 1,"O=C1NCCN1c1cncc(Nc2ccc(-c3ccc(N4CCCC4=O)c(F)c3)cn2)c1 [Example 272, 1-(5-((5-(3-fluoro-4-(2-oxopyrrolidin-1-yl)phenyl)pyridin-2-yl)amino)pyridin-3-yl)imidazolidin-2-one]"
0.01 to 0.1,0.01 to 0.1,"COc1cc(C(=O)Nc2cncc(Nc3ccc(-c4ccc(N5CCCC5=O)cc4)cn3)c2)c2[nH]cnc2c1 [Example 253, 5-methoxy-N-(5-((5-(4-(2-oxopyrrolidin-1-yl)phenyl)pyridin-2-yl)amino)pyridin-3-yl)-1H-benzo[d]imidazole-7-carboxamide]"
0.001 to 0.01,0.001 to 0.01,"COCc1cc(Nc2cnc3c(c2)N2C(=O)C4(CC4)C[C@H]2CO3)ncc1-c1ccc(N2CCCC2=O)cc1 [Example 207, (S)-2′-((4-(methoxymethyl)-5-(4-(2-oxopyrrolidin-1-yl)phenyl)pyridin-2-yl)amino)-6a′,7′-dihydro-6′H,9′H-spiro[cyclopropane-1,8′-pyrido[2,3-b]pyrrolo[1,2-d][1,4]oxazin]-9′-one]"
